Each block holds one compound with its values, some of them ahead of it.
Assays:
Bmi-1 protein = assay: Sandwich ELISA Assay (Bmi-1 protein level in HT-1080 cells); type: cell-based
Outline: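 HT-1080 cells were treated with compounds (0.5% DMSO final) for 40-48 h at 37 °C. Lysates were assayed by sandwich ELISA: mouse anti-Bmi-1 capture, rabbit anti-Bmi-1 and HRP anti-rabbit detection, TMB read at OD450 (OD570 reference). Levels were quantified against a recombinant GST-Bmi-1 standard curve (125-8000 pg/mL).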

Structure (SMILES): COc1ccc(Nc2nc(N)cc(-n3c(C)nc4ccccc43)n2)cn1 [Cpd 157, N^2-(6-methoxypyridin-3-yl)-6-(2-methyl-1H-benzimidazol-1-yl)pyrimidine-2,4-diamine]
EC50 (Bmi-1 protein): 10 to 100 nM
melting point: 104 to 106 °C

Structure (SMILES): CCc1nc2ccc(F)cc2n1-c1cc(N)nc(Nc2ccc(OC)cc2)n1 [Cpd 161, 6-(2-ethyl-6-fluoro-1H-benzimidazol-1-yl)-N^2-(4-methoxyphenyl)pyrimidine-2,4-diamine]
EC50 (Bmi-1 protein): 1 to 10 nM
melting point: 166 to 168 °C

Structure (SMILES): CCc1nc2ccc(F)cc2n1-c1cc(N)nc(Nc2ccc(OC)c(F)c2)n1 [Cpd 168, 6-(2-ethyl-6-fluoro-1H-benzimidazol-1-yl)-N^2-(3-fluoro-4-methoxyphenyl)pyrimidine-2,4-diamine]
EC50 (Bmi-1 protein): 1 to 10 nM
melting point: 129 to 131 °C

Structure (SMILES): Cc1nc2ccc(F)cn2c1-c1cc(N)nc(Nc2ccc(F)cc2)n1 [Cpd 169, 6-(6-fluoro-2-methylimidazo[1,2-a]pyridin-3-yl)-N^2-(4-fluorophenyl)pyrimidine-2,4-diamine]
EC50 (Bmi-1 protein): 100 to 3000 nM
melting point: 250 to 253 °C

Structure (SMILES): Cc1nc2ccc(F)cn2c1-c1cc(N)nc(Nc2ccc(Cl)cc2)n1 [Cpd 172, N^2-(4-chlorophenyl)-6-(6-fluoro-2-methylimidazo[1,2-a]pyridin-3-yl)pyrimidine-2,4-diamine]
EC50 (Bmi-1 protein): 1 to 10 nM
melting point: 243 to 246 °C

Structure (SMILES): Cc1cc2nc(C)n(-c3cc(N)nc(Nc4ccc(Cl)cc4)n3)c2cc1C [Cpd 184, N^2-(4-chlorophenyl)-6-(2,5,6-trimethyl-1H-benzimidazol-1-yl)pyrimidine-2,4-diamine]
EC50 (Bmi-1 protein): 100 to 3000 nM
melting point: 111 to 112 °C

Structure (SMILES): COc1ccc(Nc2nc(N)cc(-n3c(C)nc4cc(C)c(C)cc43)n2)cc1 [Cpd 185, N^2-(4-methoxyphenyl)-6-(2,5,6-trimethyl-1H-benzimidazol-1-yl)pyrimidine-2,4-diamine]
EC50 (Bmi-1 protein): 10 to 100 nM
melting point: 113 to 114 °C

Structure (SMILES): COc1ccc(Nc2nc(N)cc(-n3c(C)nc4cc(C)c(C)cc43)n2)cc1F [Cpd 186, N^2-(3-fluoro-4-methoxyphenyl)-6-(2,5,6-trimethyl-1H-benzimidazol-1-yl)pyrimidine-2,4-diamine]
EC50 (Bmi-1 protein): 10 to 100 nM
melting point: 120 to 121 °C

Structure (SMILES): COc1ccc(Nc2nc(N)cc(-n3c(C)nc4cc(C)c(C)cc43)n2)cc1Cl [Cpd 187, N^2-(3-chloro-4-methoxyphenyl)-6-(2,5,6-trimethyl-1H-benzimidazol-1-yl)pyrimidine-2,4-diamine]
EC50 (Bmi-1 protein): 10 to 100 nM
melting point: 129 to 131 °C

Structure (SMILES): Cc1cc2nc(C)n(-c3cc(N)nc(Nc4ccc(OC(F)F)cc4)n3)c2cc1C [Cpd 188, N^2-[4-(difluoromethoxy)phenyl]-6-(2,5,6-trimethyl-1H-benzimidazol-1-yl)pyrimidine-2,4-diamine]
EC50 (Bmi-1 protein): 10 to 100 nM
melting point: 89 to 91 °C

Structure (SMILES): COc1ccc(Nc2nc(N)cc(-c3c(C)noc3C)n2)cc1 [Cpd 189, 6-(3,5-dimethyl-1,2-oxazol-4-yl)-N^2-(4-methoxyphenyl)pyrimidine-2,4-diamine]
EC50 (Bmi-1 protein): 100 to 3000 nM
melting point: 89 to 91 °C

Results, then the compound that gave them:

EC50 (Bmi-1 protein): 1 to 10 nM
melting point: 144 to 145 °C
Structure (SMILES): CCc1nc2ccccc2n1-c1cc(N)nc(Nc2ccc(OC)cc2)n1 [Cpd 151, 6-(2-ethyl-1H-benzimidazol-1-yl)-N^2-(4-methoxyphenyl)pyrimidine-2,4-diamine]

EC50 (Bmi-1 protein): 100 to 3000 nM
melting point: 119 to 120 °C
Structure (SMILES): CCc1nc2ccccc2n1-c1cc(N)nc(Nc2ccccc2C)n1 [Cpd 152, 6-(2-ethyl-1H-benzimidazol-1-yl)-N^2-(2-methylphenyl)pyrimidine-2,4-diamine]

EC50 (Bmi-1 protein): 10 to 100 nM
melting point: 119 to 121 °C
Structure (SMILES): CCc1nc2ccccc2n1-c1cc(N)nc(Nc2ccc3c(c2)OCO3)n1 [Cpd 154, N^2-(1,3-benzodioxol-5-yl)-6-(2-ethyl-1H-benzimidazol-1-yl)pyrimidine-2,4-diamine]

EC50 (Bmi-1 protein): 1 to 10 nM
melting point: 104 to 106 °C
Structure (SMILES): CCc1nc2ccccc2n1-c1cc(N)nc(Nc2ccc(OC)c(F)c2)n1 [Cpd 155, 6-(2-ethyl-1H-benzimidazol-1-yl)-N^2-(3-fluoro-4-methoxyphenyl)pyrimidine-2,4-diamine]

EC50 (Bmi-1 protein): 10 to 100 nM
melting point: 100 to 103 °C
Structure (SMILES): CCc1nc2ccccc2n1-c1cc(N)nc(Nc2ccc(OC)c(Cl)c2)n1 [Cpd 156, N^2-(3-chloro-4-methoxyphenyl)-6-(2-ethyl-1H-benzimidazol-1-yl)pyrimidine-2,4-diamine]

EC50 (Bmi-1 protein): 1 to 10 nM
melting point: 185 to 187 °C
Structure (SMILES): CCc1nc2ccc(F)cc2n1-c1cc(N)nc(Nc2ccc(Cl)cc2)n1 [Cpd 158, N^2-(4-chlorophenyl)-6-(2-ethyl-6-fluoro-1H-benzimidazol-1-yl)pyrimidine-2,4-diamine]

EC50 (Bmi-1 protein): 100 to 3000 nM
melting point: 160 to 162 °C
Structure (SMILES): CCc1nc2ccc(F)cc2n1-c1cc(N)nc(Nc2ccccc2)n1 [Cpd 159, 6-(2-ethyl-6-fluoro-1H-benzimidazol-1-yl)-N^2-phenylpyrimidine-2,4-diamine]

EC50 (Bmi-1 protein): 1 to 10 nM
melting point: 187 to 189 °C
Structure (SMILES): CCc1nc2ccc(F)cc2n1-c1cc(N)nc(Nc2ccc(C)cc2)n1 [Cpd 160, 6-(2-ethyl-6-fluoro-1H-benzimidazol-1-yl)-N^2-(4-methylphenyl)pyrimidine-2,4-diamine]

EC50 (Bmi-1 protein): 10 to 100 nM
melting point: 230 to 232 °C
Structure (SMILES): CCc1nc2ccc(F)cc2n1-c1cc(N)nc(Nc2ccc(N(C)C)cc2)n1 [Cpd 162, N^2-[4-(dimethylamino)phenyl]-6-(2-ethyl-6-fluoro-1H-benzimidazol-1-yl)pyrimidine-2,4-diamine]

EC50 (Bmi-1 protein): 100 to 3000 nM
melting point: 169 to 171 °C
Structure (SMILES): CCc1nc2ccc(F)cc2n1-c1cc(N)nc(Nc2cccc(F)c2)n1 [Cpd 163, 6-(2-ethyl-6-fluoro-1H-benzimidazol-1-yl)-N^2-(3-fluorophenyl)pyrimidine-2,4-diamine]

EC50 (Bmi-1 protein): 100 to 3000 nM
melting point: 133 to 135 °C
Structure (SMILES): CCc1nc2ccc(F)cc2n1-c1cc(N)nc(Nc2cccc(OC)c2)n1 [Cpd 165, 6-(2-ethyl-6-fluoro-1H-benzimidazol-1-yl)-N^2-(3-methoxyphenyl)pyrimidine-2,4-diamine]

EC50 (Bmi-1 protein): 100 to 3000 nM
melting point: 149 to 150 °C
Structure (SMILES): CCc1nc2ccc(F)cc2n1-c1cc(N)nc(Nc2cccc(C)c2)n1 [Cpd 166, 6-(2-ethyl-6-fluoro-1H-benzimidazol-1-yl)-N^2-(3-methylphenyl)pyrimidine-2,4-diamine]

EC50 (Bmi-1 protein): 100 to 3000 nM
melting point: 252 to 255 °C
Structure (SMILES): CCc1nc2ccc(F)cc2n1-c1cc(N)nc(Nc2ccc(C#N)cc2)n1 [Cpd 167, 4-{[4-amino-6-(2-ethyl-6-fluoro-1H-benzimidazol-1-yl)pyrimidin-2-yl]amino}benzonitrile]

EC50 (Bmi-1 protein): 10 to 100 nM
melting point: 209 to 211 °C
Structure (SMILES): CCc1nc2ccc(F)cc2n1-c1cc(N)nc(Nc2ccc(Cl)c(F)c2)n1 [Cpd 175, N^2-(4-chloro-3-fluorophenyl)-6-(2-ethyl-6-fluoro-1H-benzimidazol-1-yl)pyrimidine-2,4-diamine]
